Series [1] concerns the target T1, porcine DPP-IV (Sus scrofa, UniProt P22411). In words: Stability of peptides to hydrolysis by DPP-IV (LC-MS/MS). The conditions noted are these: for Hydrolysis by DPP-IV (stability), in words: 30 min incubation with DPP-IV; for Peptide hydrolyzed by DPP-IV: peptide at 1/4 of IC50, 30 min at 37°C, Tris-HCl buffer pH 8.0.
Method: Stability of the peptides to hydrolysis by DPP-IV was evaluated by liquid chromatography tandem mass spectrometry (LC-MS/MS) using the samples generated during the Lineweaver and Burk analysis containing DPP-IV inhibitory peptides at their IC50 values divided by 4 as previously described ([24]). Following the 30 min reaction, DPP-IV was heat inactivated by immersing samples in a water bath set at 90°C for 20 min. Test samples were subsequently diluted 40 times in mobile phase A (0.1% FA in MS water). Intact peptides were analyzed at the same concentration as the test samples. The peptide composition of the samples was determined as described previously ([25]). Briefly, an ultra-high performance liquid chromatography (UHPLC) UltiMate 3000 (Dionex, Camberley, Surrey, UK) fitted with a security guard UHPLC C18 PEPTIDE (2.1 mm, Phenomenex, Cheshire, UK) and an Aeris Peptide XB-C18 column (150 mm × 2.1 mm, 1.7 µm, Phenomenex) was used for peptide separation at 25°C. A sample volume of 2 µL was injected with a solvent delay of 4 min. The UHPLC was coupled to a quadrupole time-of-flight mass spectrometer (Q-TOF, Impact HD™, Bruker Daltonics GmbH, Bremen, Germany) using a 50–600 m/z acquisition range. The MS was fitted with an electrospray ionization source used in positive ion mode. Data acquisition was performed with Hystar software (Bruker Daltonics). Data analysis was performed with Compass Data Analysis 4.2 (Bruker Daltonics).
Series [2] concerns the target T1, porcine DPP-IV. In words: DPP-IV inhibition assay with Gly-Pro-pNA substrate. In kind it is biochemical. Set-up: purchased Sigma Aldrich (Dublin, Ireland). Conditions: for IC50: porcine DPP-IV, Gly-Pro-pNA 0.200 mM, 37°C, n = 3, read-out: Experimental DPP-IV IC50. As to the method: Peptides were dispersed in HPLC grade water at 50 and 500 µM (final concentration). The DPP-IV inhibition assay was carried out in triplicate as outlined by Nongonierma and FitzGerald ([18]). Briefly, samples (25 μL) were mixed with Gly-Pro-pNA (final concentration 0.200 mM) and DPP-IV (final concentration 0.0025 U mL^−1) in a 96-well microplate (Sarstedt, Dublin, Ireland). The microplate was incubated at 37°C for 60 min in a microplate reader (Biotek Synergy HT, Winooski, VT, USA) and absorbance was monitored at 405 nm.
Dose–response curves were determined for peptides displaying a percentage of inhibition > 50% at 500 µM. Peptides were diluted in HPLC water at concentrations ranging from 0.37 to 500 µM (final concentration). The DPP-IV IC50 values were determined by plotting the percentage inhibition as a function of the test compound concentration. Each analysis was carried out in triplicate (n = 3).

Series [3] concerns DPP-IV. Set-up: method as in PMID 1671823. The conditions noted are these: after 36 min incubation; ref [47]; cited from earlier work.
Series [4] deals with DPP-IV. Conditions: competitive inhibitory peptides used in QSAR model, cited from earlier work.
The conditions of series [5]: cited from earlier work.
Series [6] deals with human dipeptidyl peptidase IV. Set-up: method as in PMID 24512990. The conditions noted are these: most potent peptide of Trp-Arg-Xaa library; ref [14]; read-out: DPP-IV IC50; cited from earlier work.
The test system of series [7] is DPP-IV. The conditions noted are these: cited from earlier work.

Read-outs that look alike come from different tables or passages of the source. Residues, ends and D or L forms follow the SMILES beside them. Some results are limits rather than exact numbers.

Results on 30 molecules are retold here after article PMC6010526, “In Silico Approaches Applied to the Study of Peptide Analogs of Ile-Pro-Ile in Relation to Their Dipeptidyl Peptidase IV Inhibitory Properties” (Frontiers in Endocrinology, 2018).

T1 sequence (P22411 whole entry): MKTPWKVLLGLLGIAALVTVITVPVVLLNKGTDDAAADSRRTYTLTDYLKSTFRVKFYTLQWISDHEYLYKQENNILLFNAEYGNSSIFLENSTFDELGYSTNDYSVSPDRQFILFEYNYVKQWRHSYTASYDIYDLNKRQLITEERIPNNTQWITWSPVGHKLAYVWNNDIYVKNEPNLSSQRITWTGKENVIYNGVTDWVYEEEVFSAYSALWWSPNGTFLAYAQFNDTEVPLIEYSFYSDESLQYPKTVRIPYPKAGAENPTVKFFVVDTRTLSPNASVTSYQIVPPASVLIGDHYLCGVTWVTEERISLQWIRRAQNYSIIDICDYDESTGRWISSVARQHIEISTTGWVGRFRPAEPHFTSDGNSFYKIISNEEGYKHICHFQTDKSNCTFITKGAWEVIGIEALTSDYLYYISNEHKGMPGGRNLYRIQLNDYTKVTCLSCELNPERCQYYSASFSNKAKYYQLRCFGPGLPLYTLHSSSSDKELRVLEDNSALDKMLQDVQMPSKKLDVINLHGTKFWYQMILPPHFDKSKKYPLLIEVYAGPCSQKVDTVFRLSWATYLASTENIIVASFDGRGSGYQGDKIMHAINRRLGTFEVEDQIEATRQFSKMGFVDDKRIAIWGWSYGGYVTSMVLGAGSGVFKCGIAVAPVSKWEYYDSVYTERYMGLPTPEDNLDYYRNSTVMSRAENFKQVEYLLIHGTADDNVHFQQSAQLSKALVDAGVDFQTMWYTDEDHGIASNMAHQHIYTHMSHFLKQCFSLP

In the case of `C[C@H](N)C(=O)N1CCC[C@H]1C(=O)N[C@@H](C)C(=O)O` [APA, Ala-Pro-Ala] (H-Ala-Pro-Ala-OH; N-terminus and C-terminus assumed), on porcine DPP-IV [1], the “Hydrolysis by DPP-IV (stability), in words” value (shortened to “Hydrolysis by DPP-IV”) is given as “not hydrolyzed by DPP-IV” and the “Peptide hydrolyzed by DPP-IV” value is given as “NO”. Moreover, at porcine DPP-IV [2] (peptide at 500 µM), the inhibition (commonly how much of the control response was suppressed) at 500 µM is greater than 65%. Besides, on porcine DPP-IV [2], the IC50 (as a rule, the point on the concentration scale where inhibition reaches its midpoint) turned out to be 44.3 ± 3.2 µM.

Regarding `C[C@H](N)C(=O)N1CCC[C@H]1C(=O)N[C@@H](Cc1ccccc1)C(=O)O` [APF, Ala-Pro-Phe] (H-Ala-Pro-Phe-OH; N-terminus and C-terminus assumed), at porcine DPP-IV [1], the “Hydrolysis by DPP-IV” value is recorded as “not hydrolyzed by DPP-IV” and the “Peptide hydrolyzed by DPP-IV” value is given as “NO”. Moreover, the inhibition at 500 µM at porcine DPP-IV [2] (peptide at 500 µM) is greater than 65%. For the same molecule, at porcine DPP-IV [2], the IC50 stood at 65.8 ± 5.5 µM.

Turning to `C[C@H](N)C(=O)N1CCC[C@H]1C(=O)N[C@@H](CCCNC(=N)N)C(=O)O` [APR, Ala-Pro-Arg] (H-Ala-Pro-Arg-OH; N-terminus and C-terminus assumed), at porcine DPP-IV [1], the “Hydrolysis by DPP-IV” value is listed as “not hydrolyzed by DPP-IV” and the “Peptide hydrolyzed by DPP-IV” value is listed as “NO”. In addition, the inhibition at 500 µM on porcine DPP-IV [2] (peptide at 500 µM) was greater than 65%. Also, the IC50 on porcine DPP-IV [2] worked out at 120 ± 3.5 µM.

For the molecule `N[C@@H](Cc1ccccc1)C(=O)N1CCC[C@H]1C(=O)N[C@@H](Cc1ccccc1)C(=O)O` [FPF, Phe-Pro-Phe] (H-Phe-Pro-Phe-OH; N-terminus and C-terminus assumed), on porcine DPP-IV [1], the “Hydrolysis by DPP-IV” value was “partly hydrolyzed by DPP-IV” and the “Peptide hydrolyzed by DPP-IV” value is “YES”. Also, the inhibition at 500 µM at porcine DPP-IV [2] (peptide at 500 µM) was found to be 62.9 ± 10.1%. Besides, the IC50 at porcine DPP-IV [2] stood at 247 ± 32.7 µM.

For `N[C@@H](Cc1ccccc1)C(=O)N1CCC[C@H]1C(=O)N[C@@H](Cc1c[nH]c2ccccc12)C(=O)O` [FPW, Phe-Pro-Trp] (H-Phe-Pro-Trp-OH; N-terminus and C-terminus assumed), on porcine DPP-IV [1], the “Hydrolysis by DPP-IV” value is on record as “partly hydrolyzed by DPP-IV” and the “Peptide hydrolyzed by DPP-IV” value is reported as “YES”. For the same molecule, the IC50 on porcine DPP-IV [2] is 54.9 ± 2.9 µM.

With `CC[C@H](C)[C@H](N)C(=O)N[C@@H](C)C(=O)N[C@H](C(=O)O)[C@@H](C)CC` [IAI, Ile-Ala-Ile] (H-Ile-Ala-Ile-OH; N-terminus and C-terminus assumed), the inhibition at 500 µM at porcine DPP-IV [2] (peptide at 500 µM) was 9.6 ± 1.9%. In addition, at porcine DPP-IV [2] (peptide at 500 µM, 500 µM), the “% DPP-IV inhibition” value is listed as less than 10%.

As to `CC[C@H](C)[C@H](N)C(=O)N1CCC[C@H]1C(=O)N[C@@H](C)C(=O)O` [IPA, Ile-Pro-Ala] (H-Ile-Pro-Ala-OH; N-terminus and C-terminus assumed), at porcine DPP-IV [1], the “Hydrolysis by DPP-IV” value was “not hydrolyzed by DPP-IV” and the “Peptide hydrolyzed by DPP-IV” value was “NO”. Besides, the inhibition at 500 µM at porcine DPP-IV [2] (peptide at 500 µM) is greater than 65%. Further, at porcine DPP-IV [2], the IC50 was 28.3 ± 3.4 µM.

Consider `CC[C@H](C)[C@H](N)C(=O)N1CCC[C@H]1C(=O)N[C@@H](Cc1ccccc1)C(=O)O` [IPF, Ile-Pro-Phe] (H-Ile-Pro-Phe-OH; N-terminus and C-terminus assumed), for which, on porcine DPP-IV [1], the “Hydrolysis by DPP-IV” value is listed as “partly hydrolyzed by DPP-IV” and the “Peptide hydrolyzed by DPP-IV” value is listed as “YES”. For the same molecule, the IC50 on porcine DPP-IV [2] stood at 47.3 ± 12.3 µM.

With `CC[C@H](C)[C@H](N)C(=O)N1CCC[C@H]1C(=O)N[C@H](C(=O)O)[C@@H](C)CC` [IPI, Ile-Pro-Ile], the “initial amount cleaved by DPP-IV” value with DPP-IV [3] is 37%. Further, the inhibition at 500 µM on porcine DPP-IV [2] (peptide at 500 µM) is greater than 65%.

With `CC[C@H](C)[C@H](N)C(=O)N1CCC[C@H]1C(=O)N[C@@H](Cc1c[nH]c2ccccc12)C(=O)O` [IPW, Ile-Pro-Trp] (H-Ile-Pro-Trp-OH; N-terminus and C-terminus assumed), at porcine DPP-IV [1], the “Hydrolysis by DPP-IV” value is on record as “partly hydrolyzed by DPP-IV” and the “Peptide hydrolyzed by DPP-IV” value is listed as “YES”. The IC50 at porcine DPP-IV [2] is 175 ± 5.5 µM.

Consider `CC[C@H](C)[C@H](N)C(=O)N[C@@H](CCCNC(=N)N)C(=O)N[C@@H](Cc1ccccc1)C(=O)O` [IRF, Ile-Arg-Phe] (H-Ile-Arg-Phe-OH; N-terminus and C-terminus assumed), for which the inhibition at 500 µM on porcine DPP-IV [2] (peptide at 500 µM) was less than 25%.

Take `CC[C@H](C)[C@H](N)C(=O)N[C@@H](CCCNC(=N)N)C(=O)N[C@@H](CCCCN)C(=O)O` [IRK, Ile-Arg-Lys] (H-Ile-Arg-Lys-OH; N-terminus and C-terminus assumed): on porcine DPP-IV [2] (peptide at 500 µM), the inhibition at 500 µM was less than 25%.

As for `C[C@H](NC(=O)[C@@H]1CCCN1C(=O)[C@@H](N)CCCCN)C(=O)O` [KPA, Lys-Pro-Ala] (H-Lys-Pro-Ala-OH; N-terminus and C-terminus assumed), on porcine DPP-IV [1], the “Hydrolysis by DPP-IV” value is “not hydrolyzed by DPP-IV” and the “Peptide hydrolyzed by DPP-IV” value is “NO”. Moreover, the inhibition at 500 µM on porcine DPP-IV [2] (peptide at 500 µM) is greater than 65%. Besides, the IC50 at porcine DPP-IV [2] came out at 74.5 ± 7 µM.

In the case of `N=C(N)NCCC[C@H](NC(=O)[C@H](CCCCN)NC(=O)[C@@H](N)CCCNC(=N)N)C(=O)O` [RKR, Arg-Lys-Arg] (H-Arg-Lys-Arg-OH; N-terminus and C-terminus assumed), the inhibition at 500 µM at porcine DPP-IV [2] (peptide at 500 µM) is less than 25%.

For `N[C@@H](Cc1c[nH]c2ccccc12)C(=O)N1CCC[C@H]1C(=O)N[C@@H](Cc1ccccc1)C(=O)O` [WPF, Trp-Pro-Phe] (H-Trp-Pro-Phe-OH; N-terminus and C-terminus assumed), on porcine DPP-IV [1], the “Hydrolysis by DPP-IV” value is given as “partly hydrolyzed by DPP-IV” and the “Peptide hydrolyzed by DPP-IV” value is on record as “YES”. Also, the IC50 at porcine DPP-IV [2] is 160 ± 12.8 µM.

Consider `N[C@@H](Cc1c[nH]c2ccccc12)C(=O)N1CCC[C@H]1C(=O)N[C@@H](Cc1c[nH]c2ccccc12)C(=O)O` [WPW, Trp-Pro-Trp] (H-Trp-Pro-Trp-OH; N-terminus and C-terminus assumed), for which, on porcine DPP-IV [1], the “Hydrolysis by DPP-IV” value is “partly hydrolyzed by DPP-IV” and the “Peptide hydrolyzed by DPP-IV” value is reported as “YES”. The IC50 on porcine DPP-IV [2] worked out at 120 ± 13.1 µM.

As for Glu-Lys [EK], the IC50 with DPP-IV [4] (ref [18]) is 3220 µM.

Regarding IPIQY, the IC50 in the series with DPP-IV [4] (ref [21]) was 35.2 µM.

For Ile-Pro-Pro, in series [5] (following ingestion of a milk beverage enriched in lactotripeptides, ref [39]), the “Identification in human sera” value was “identified in human sera”.

Turning to LLQLEAIR, the IC50 in the series on DPP-IV [4] (ref [24]) was 178 µM.

Regarding LPLPL, in the series with DPP-IV [4] (ref [21]), the IC50 is 325 µM.

On to LPQNIPPLT, for which the IC50 in the series with DPP-IV [4] (ref [17]) was 205 µM.

On to LPVP, for which the IC50 in the series on DPP-IV [4] (ref [24]) is 87 µM.

On to LPVPQ, for which the IC50 in the series on DPP-IV [4] (ref [17]) was 43.7 µM.

Regarding LPYPY, the IC50 in the series with DPP-IV [4] (ref [21]) was 108 µM.

MPVQA: in the series with DPP-IV [4] (ref [24]), the IC50 was 93.3 µM.

Take Trp-Arg-Glu: the IC50 in series [6] was 350 µM.

Consider VPGEIVE, for which, in the series on DPP-IV [4] (ref [17]), the IC50 was 224 µM.

Take Val-Pro-Leu [VPL]: in the series with DPP-IV [7] (DPP-IV inhibition, ref [5]), the “times more potent than other food protein-derived peptides” value is given as greater than 2 times. In addition, the Mode of inhibition entry with DPP-IV [7] (Table S1, ref (2,3) of supplement) was “competitive”. In addition, in the series on DPP-IV [7] (ref [8]), the IC50 was 15.8 µM.

Turning to Val-Pro-Pro, the “Identification in human sera” value in series [5] (in vivo) is “identified in human sera”.
